In the supplement of paper PMC10307832:

Experiments:
Assay in all cases: relative viability (nuclei count vs DMSO), 5 days (fraction); higher = more cells survive
Erlotinib + Pemetrexed = compound: C#Cc1cccc(Nc2ncnc3cc(OCCOC)c(OCCOC)cc23)c1 [Erlotinib] + Nc1nc2[nH]cc(CCc3ccc(C(=O)N[C@@H](CCC(=O)O)C(=O)O)cc3)c2c(=O)[nH]1 [Pemetrexed] (partner 0.2 µM)
Method in brief: (§1)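 Lung cancer cell lines were pin-tool dosed in 1536-well plates on the day after seeding, with either a lone drug or a fixed anchor-drug dose plus five library-drug doses (not always all listed) in √10 steps. Nuclei were counted on 4× images after 5 days. Relative viability is the ratio of treated-well to vehicle-well nuclei counts, with each value a median of duplicate plates.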

AT9283 + Bortezomib = compound: O=C(Nc1c[nH]nc1-c1nc2ccc(CN3CCOCC3)cc2[nH]1)NC1CC1 [AT9283] + CC(C)C[C@H](NC(=O)[C@H](Cc1ccccc1)NC(=O)c1cnccn1)B(O)O [Bortezomib] (partner 0.002 µM)
Method in brief: as §1

Erlotinib + Foretinib = compound: C#Cc1cccc(Nc2ncnc3cc(OCCOC)c(OCCOC)cc23)c1 [Erlotinib] + COc1cc2c(Oc3ccc(NC(=O)C4(C(=O)Nc5ccc(F)cc5)CC4)cc3F)ccnc2cc1OCCCN1CCOCC1 [Foretinib] (partner 0.25 µM)
Method in brief: as §1

AT9283 + Tozasertib = compound: O=C(Nc1c[nH]nc1-c1nc2ccc(CN3CCOCC3)cc2[nH]1)NC1CC1 [AT9283] + Cc1cc(Nc2cc(N3CCN(C)CC3)nc(Sc3ccc(NC(=O)C4CC4)cc3)n2)n[nH]1 [Tozasertib] (partner 0.1 µM)
Method in brief: as §1

Erlotinib + Palbociclib = compound: C#Cc1cccc(Nc2ncnc3cc(OCCOC)c(OCCOC)cc23)c1 [Erlotinib] + CC(=O)c1c(C)c2cnc(Nc3ccc(N4CCNCC4)cn3)nc2n(C2CCCC2)c1=O [Palbociclib] (partner 0.5 µM)
Method in brief: as §1

Cell Line	relative viability (Erlotinib + Pemetrexed; first compound 0.02 µM)	relative viability (Erlotinib + Pemetrexed; first compound 0.2 µM)	relative viability (Erlotinib + Pemetrexed; first compound 0.6325 µM)	relative viability (Erlotinib + Pemetrexed; first compound 2 µM)	relative viability (AT9283 + Bortezomib; first compound 0.003 µM)	relative viability (AT9283 + Bortezomib; first compound 0.03 µM)	relative viability (AT9283 + Bortezomib; first compound 0.09487 µM)	relative viability (AT9283 + Bortezomib; first compound 0.3 µM)	relative viability (Erlotinib + Foretinib; first compound 0.02 µM)	relative viability (Erlotinib + Foretinib; first compound 0.2 µM)	relative viability (Erlotinib + Foretinib; first compound 0.6325 µM)	relative viability (Erlotinib + Foretinib; first compound 2 µM)	relative viability (AT9283 + Tozasertib; first compound 0.003 µM)	relative viability (AT9283 + Tozasertib; first compound 0.03 µM)	relative viability (AT9283 + Tozasertib; first compound 0.09487 µM)	relative viability (AT9283 + Tozasertib; first compound 0.3 µM)	relative viability (Erlotinib + Palbociclib; first compound 0.02 µM)	relative viability (Erlotinib + Palbociclib; first compound 0.2 µM)	relative viability (Erlotinib + Palbociclib; first compound 0.6325 µM)	relative viability (Erlotinib + Palbociclib; first compound 2 µM)
HARA	0.259	0.21	0.186	0.222	0.795	1.05	0.172	0.158	0.929	0.602	0.636	0.401	0.154	0.1	0.0825	0.0852	0.233	0.224	0.241	0.188
HCC-15	0.241	0.225	0.249	0.215	1.05	0.773	0.696	0.166	0.996	1.01	1.15	0.934	0.25	0.134	0.126	0.0965	0.727	0.672	0.751	0.71
HCC-78	0.883	0.912	0.892	0.899	0.425	0.472	0.237	0.245	0.477	0.42	0.362	0.322	0.501	0.354	0.267	0.291	0.482	0.432	0.458	0.459
HCC-366	0.176	0.197	0.127	0.136	1.02	0.921	0.129	0.0684	0.867	0.936	0.976	0.941	0.127	0.438	0.0615	0.0586	0.389	0.358	0.544	0.312
HCC-827	0.182	0.147	0.139	0.156	1.03	0.678	0.747	0.568	0.263	0.158	0.154	0.135	0.409	0.374	0.337	0.257	0.191	0.146	0.135	0.154
HOP-62	0.285	0.332	0.255	0.312	0.593	0.651	0.68	0.158	1.22	1.08	1.15	0.89	0.34	0.263	0.213	0.265	0.544	0.517	0.453	0.41
LC-2-ad	0.307	0.279	0.274	0.262	1.08	0.509	0.233	0.108	0.876	0.658	0.665	0.528	0.422	0.285	0.321	0.25	0.527	0.491	0.472	0.411
LCLC-97TM1	0.22	0.201	0.176	0.155	0.49	0.09	0.139	0.0748	0.894	0.89	0.963	0.791	0.199	0.123	0.18	0.181	0.234	0.243	0.256	0.194
